In article PMC12257394, “Design, Synthesis, and Biological Evaluation of Ferrocenyl–Cyclo-(Gly‑L‑Pro) Hybrids Sensitizing Multidrug-Resistant Cancer Cells to Anticancer Agents” (ACS Medicinal Chemistry Letters, 2025):
Values belong to the compound of their own block, whether it stands above or below them.

Experiments:
Format in all cases: cell-based, human
[1] = test system: SW620C cells (cisplatin-resistant); experiment: Neutral red uptake viability assay, SW620C; settings: for survival rate / Cytotoxic activity IC50 (95% CI) / IC50: SW620C, 72 h; for survival rate: n = 3, ± SD; for Cytotoxic activity IC50 (95% CI) / IC50: n = 3; for IC50: read-out: Cytotoxic activity IC50 (95% CI)
Method: (§1) The normal lung fibroblast MRC-5 and colorectal adenocarcinoma SW620 cell lines used in this experiment were purchased from American Type Culture Collection (USA) via LGC […]
(§2) described previously.10, 11 All cells were cultured under standard conditions (37°C, 5% CO2, 100% humidity) in high-glucose DMEM supplemented with GlutaMaxTM, HEPES (ThermoFisher Scientific, USA), and 10% fetal bovine serum (EURx, Poland). Cells were routinely tested for potential Mycoplasma contamination using the MycoProbe Mycoplasma Detection kit (R&D System, USA).
(§3) In total, 104 cells in 100 µL of complete medium were plated per well of a 96-well plate and left overnight to allow cells to adhere to the surface. Then, the cells were exposed to a desired concentration of tested compound(s). Stock solutions were prepared in DMSO and used immediately. The final DMSO concentration was constant and nontoxic (0.1% v/v). After 70-h incubation, neutral red was added to the final concentration of 1 mM. After another 2 h, the medium was aspirated, and cells were washed twice with PBS. Dye was released using 100 µL of a solubilizer (1% acetic acid in 50% ethanol) on an orbital shaker (10 min). Absorbance was read at 540 nm using EnVision Multilabel Plate Reader (Perkin Elmer, USA). Results were expressed as % of control. The IC50 parameters were calculated using GraphPad Prism version 10 (GraphPad Software, Boston, Massachusetts USA). […]
IC₅₀ values were determined in […]
(§4) All experiments were performed in triplicate (n = 3).

[2] = test system: SW620E cells (etoposide-resistant); experiment: Neutral red uptake viability assay, SW620E; settings: 72 h; for survival rate: n = 3, ± SD; for IC50: n = 3, read-out: Cytotoxic activity IC50 (95% CI)
Method: (§5) To evaluate this aspect, we investigated the viability of SW620 colon cancer cells and their multidrug-resistant variants (overexpressing ABCB1, ABCC1, and ABCG2) exposed to 1 and 10 μM 4a–e using a neutral red uptake assay (Table ). In general, compounds 4a–e exerted little or no cytotoxic effect on either SW620 or multidrug-resistant sublines even at 10 μM, with the remarkable exception of SW620C (cisplatin-selected variant of SW620) cells, which turned out to be relatively susceptible toward ferrocenyl 4a–c. […] This trend may reflect steric or electronic contributions to cellular uptake or interaction with intracellular targets. […] However, since E/Z isomeric data are currently available only for compound 4c, this hypothesis requires validation. To quantify this effect, IC50 values were determined (Table ). […]
as §1
as §2, with “Standards. Multidrug-resistant variants of SW620 cells were developed in our laboratory as described” for “described”
as §3, §4

[3] = test system: SW620D cells (doxorubicin-resistant); experiment: Neutral red uptake viability assay, SW620D; settings: 72 h; for survival rate: n = 3, ± SD; for IC50: n = 3, read-out: Cytotoxic activity IC50 (95% CI)
Method: as §5, with “In” for “To evaluate this aspect, we investigated the viability of SW620 colon cancer cells and their multidrug-resistant variants (overexpressing ABCB1, ABCC1, and ABCG2) exposed to 1 and 10 μM 4a–e using a neutral red uptake assay (Table ). In”
as §1
as §2, with “Standards. Multidrug-resistant variants of SW620 cells were developed in our laboratory as described” for “described”
(§6) In total, 104 cells in 100 µL of complete medium were plated per well of a 96-well plate and left overnight to allow cells to adhere to the surface. Then, the cells were exposed to a desired concentration of tested compound(s). Stock solutions were prepared in DMSO and used immediately. The final DMSO concentration was constant and nontoxic (0.1% v/v). After 70-h incubation, neutral red was added to the final concentration of 1 mM. After another 2 h, the medium was aspirated, and cells were washed twice with PBS. Dye was released using 100 µL of a solubilizer (1% acetic acid in 50% ethanol) on an orbital shaker (10 min). Absorbance was read at 540 nm using EnVision Multilabel Plate Reader (Perkin Elmer, USA). Results were expressed as % of control. The IC50 parameters were calculated using GraphPad Prism version 10 (GraphPad Software, Boston, Massachusetts USA).
(§7) The enhancement of reversal potency (ERP) value determination
(§8) For MDR reversal assays, cytotoxic agents were co-administered with compounds 4a–4e at equimolar concentrations in a range of 10 nM to 100 µM. IC₅₀ values were determined in ABCB1-overexpressing SW620 cell line variants. The enhancement of reversal potency (ERP) was calculated using the following formula: ERP = IC₅₀(drug)MDR / IC₅₀(drug + compound)MDR. All experiments were performed in triplicate (n = 3).

SW620Mito cells = experiment: Synergy determination (Bliss model, SynergyFinder), SW620Mito; settings: drug mitoxantrone + additive, SW602Mito; for synergy score: Bliss model
Description: (§9) In an ideal setting, the effect of cell exposure to a combination of a chemotherapeutic and an MDR inhibitor should be synergistic. […] The highest synergy scores identified an optimal concentration range where the combination exerted its maximal effect. […] In cisplatin-resistant SW620C cells, the low or lack of synergy observed for most compounds may be due to the additive effects of cisplatin and 4 rather than a true synergistic interaction. […]
(§10) To evaluate the potential interactions between putative ABC inhibitors and anticancer drugs, we utilized the Bliss independence model, as implemented in the SynergyFinder web application.13, 14 Synergy scores and the most synergistic area scores were calculated based on the normalized dose–response matrices. A synergy score below −10 indicates likely […]
(§11) above 10 is indicative of likely synergistic interactions.
(§12) All experiments were performed at least three times, and the data were statistically analyzed

SW620E cells = experiment: Synergy determination (Bliss model, SynergyFinder), SW620E; settings: drug etoposide + additive; for synergy score: Bliss model
Description: as §9, §10, §11, §12

[4] = test system: ABCB1-overexpressing SW620V cells; experiment: MDR reversal assay (ERP), SW620V; settings: for ERP value, vincristine + compound: SW620V (xlsx); for ERP = IC50(drug)MDR/IC50(drug+4)MDR: vincristine, SW620V
Description: We investigated the potency of 4a–e to inhibit ABC transporters (ABCB1, ABCC1, and ABCG2) by determining their enhancement of reversal potency (ERP) values. ERP represents fold changes in the IC50 values of anticancer drugs in multidrug-resistant cancer sublines (ABCB1-overexpressing SW620D, SW620E, and SW620V; ABCC1-overexpressing SW620M; ABCG2-overexpressing SW620C and SW620Mito) exposed to a combination of the investigated compounds and anticancer agents at equimolar concentrations, compared with values obtained with drugs alone (Tables S2 and S3 and Figure ).
as §2, with “Standards. Multidrug-resistant variants of SW620 cells were developed in our laboratory as described” for “described”
as §6, §7, §8

SMILES: O=C1N/C(=C\c2ccccc2-[c-]2cccc2)C(=O)N2CCC[C@@H]12.[Fe+2].c1cc[cH-]c1 [(S,Z)-4b]
survival rate ([1]; 1 μM): 83 ± 4.2% | survival rate ([1]; 10 μM): 57 ± 1.1% | Cytotoxic activity IC50 (95% CI) [1]: low-micromolar | IC50 [1]: 12 µM | survival rate ([2]; 1 μM): 93 ± 1.2% | survival rate ([2]; 10 μM): 99 ± 0.8% | IC50 [2]: > 100 µM | survival rate ([3]; 1 μM): 97 ± 1.0% | survival rate ([3]; 10 μM): 87 ± 3.0% | IC50 [3]: > 100 µM | most synergistic area score (SW620Mito cells): 19.63 | synergy score (SW620Mito cells): 11.11 | most synergistic area score (SW620E cells): 14.42 | synergy score (SW620E cells): 3.32 | ERP value, vincristine + compound [4]: 9.57 | ERP = IC50(drug)MDR/IC50(drug+4)MDR [4]: 9.57

ERP = IC50(drug)MDR/IC50(drug+4)MDR [4]: 1.37
SMILES: O=C1N/C(=C/c2ccccc2)C(=O)N2CCC[C@@H]12 [(S,E)-4e]
survival rate ([1]; 1 μM): 96 ± 0.8% | survival rate ([1]; 10 μM): 95 ± 2.5% | survival rate ([2]; 1 μM): 96 ± 2.5% | survival rate ([2]; 10 μM): 99 ± 0.9% | survival rate ([3]; 1 μM): 96 ± 2.4% | survival rate ([3]; 10 μM): 95 ± 0.7% | most synergistic area score (SW620Mito cells): 4.35 | synergy score (SW620Mito cells): –0.12 | most synergistic area score (SW620E cells): 0.19 | synergy score (SW620E cells): –3.93 | ERP value, vincristine + compound [4]: 1.34

SMILES: O=C1N/C(=C\[c-]2cccc2)C(=O)N2CCC[C@@H]12.[Fe+2].c1cc[cH-]c1 [(S,Z)-4a]
survival rate ([1]; 1 μM): 78 ± 1.8% | survival rate ([1]; 10 μM): 54 ± 3.1% | Cytotoxic activity IC50 (95% CI) [1]: low-micromolar | IC50 [1]: 15.1 µM | survival rate ([2]; 1 μM): 93 ± 0.8% | survival rate ([2]; 10 μM): 94 ± 3.0% | IC50 [2]: > 100 µM | survival rate ([3]; 1 μM): 96 ± 4.8% | survival rate ([3]; 10 μM): 93 ± 1.1% | IC50 [3]: > 100 µM | most synergistic area score (SW620Mito cells): 16.82 | synergy score (SW620Mito cells): 7.86 | most synergistic area score (SW620E cells): 28.26 | synergy score (SW620E cells): 12.44 | ERP value, vincristine + compound [4]: 6.00 | ERP = IC50(drug)MDR/IC50(drug+4)MDR [4]: 6.00

SMILES: O=C1N/C(=C/c2cccc(-[c-]3cccc3)c2)C(=O)N2CCC[C@@H]12.[Fe+2].c1cc[cH-]c1 [(S,E)-4c]
fold higher IC50 value than (S,Z)-4c ([1]; SW620C cells): 13 fold | survival rate ([1]; 1 μM): 84 ± 0.7% | survival rate ([1]; 10 μM): 87 ± 1.1% | IC50 [1]: 62.4 µM | survival rate ([2]; 1 μM): 95 ± 2.1% | survival rate ([2]; 10 μM): 91 ± 0.8% | IC50 [2]: > 100 µM | survival rate ([3]; 1 μM): 95 ± 1.5% | survival rate ([3]; 10 μM): 95 ± 4.5% | IC50 [3]: > 100 µM | most synergistic area score (SW620Mito cells): 0.67 | synergy score (SW620Mito cells): –4.74 | most synergistic area score (SW620E cells): 1.22 | synergy score (SW620E cells): –4.06 | ERP value, vincristine + compound [4]: 0.81 | ERP = IC50(drug)MDR/IC50(drug+4)MDR [4]: 0.81

SMILES: O=C1N/C(=C\c2ccc(-[c-]3cccc3)cc2)C(=O)N2CCC[C@@H]12.[Fe+2].c1cc[cH-]c1 [(S,Z)-4d]
survival rate ([1]; 1 μM): 96 ± 3.6% | IC50 [1]: > 100 µM | survival rate ([2]; 1 μM): 97 ± 0.8% | survival rate ([2]; 10 μM): 94 ± 2.5% | IC50 [2]: > 100 µM | survival rate ([3]; 1 μM): 92 ± 0.8% | survival rate ([3]; 10 μM): 96 ± 0.9% | IC50 [3]: > 100 µM | most synergistic area score (SW620Mito cells): 27.66 | synergy score (SW620Mito cells): 17.05 | most synergistic area score (SW620E cells): 26.95 | synergy score (SW620E cells): 16.02 | ERP value, vincristine + compound [4]: 12.7 | ERP = IC50(drug)MDR/IC50(drug+4)MDR [4]: 12.7

ERP = IC50(drug)MDR/IC50(drug+4)MDR [4]: 1.27
SMILES: O=C1N/C(=C\c2ccccc2)C(=O)N2CCC[C@@H]12 [(S,Z)-4e]
survival rate ([1]; 1 μM): 95 ± 2.1% | survival rate ([1]; 10 μM): 95 ± 1.0% | survival rate ([2]; 1 μM): 94 ± 1.9% | survival rate ([2]; 10 μM): 96 ± 4.4% | survival rate ([3]; 1 μM): 96 ± 0.7% | survival rate ([3]; 10 μM): 94 ± 2.9% | most synergistic area score (SW620Mito cells): 0.00 | synergy score (SW620Mito cells): –3.17 | most synergistic area score (SW620E cells): 2.22 | synergy score (SW620E cells): –2.56 | ERP value, vincristine + compound [4]: 1.27
